The source of these data is patent EP1280528B1, “R-ELIPRODIL FOR TREATING GLAUCOMA” (Alcon, Inc, priority 2000, dated 2001).

For one data set, the target named is 5-HT uptake (Homo sapiens, UniProt P31645). In words: binding studies, 5-HT uptake. An excerpt:
(§1) The role of these pharmacological activities in the neuroprotective efficacy has not been established for this drug.

The target of another data set is β3-adrenergic (Homo sapiens, UniProt P13945). Description: binding studies, β3-adrenergic.
Chain of β3-adrenergic (P13945 whole entry): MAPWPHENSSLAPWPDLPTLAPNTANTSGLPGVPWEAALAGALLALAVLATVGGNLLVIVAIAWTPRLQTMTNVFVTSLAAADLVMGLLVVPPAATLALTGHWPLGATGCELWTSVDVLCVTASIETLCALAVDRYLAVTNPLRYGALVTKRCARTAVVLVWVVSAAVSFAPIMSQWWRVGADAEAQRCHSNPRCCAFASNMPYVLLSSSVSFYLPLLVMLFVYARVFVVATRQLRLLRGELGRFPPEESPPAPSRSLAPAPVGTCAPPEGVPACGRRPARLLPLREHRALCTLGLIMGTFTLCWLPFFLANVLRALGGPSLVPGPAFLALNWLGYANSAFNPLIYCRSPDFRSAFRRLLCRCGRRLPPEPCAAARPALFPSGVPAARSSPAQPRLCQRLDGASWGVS
Text: as §1

A further data set has as its system α1-adrenergic. Description: binding studies, α1-adrenergic.
Text: as §1

In data set [1] the test system is pentobarbital-anesthetized cats. In words: hemodynamic and electrocardiographic parameters in anesthetized cats. Particulars: increasing doses 0.01 to 3 mg/kg, five-minute intravenous infusion every 20 minutes. As to the method:
(§2) Eliprodil and its enantiomers were evaluated for their potential for prolonging QTc by determining their dose-related effects on cardiac electrical activity. Two different experimental models were utilized for these studies: (1) Action potential duration in piglet Purkinje fibers from the heart and (2) Electrocardiographic parameters in pentobarbital anesthetized cats.
Eliprodil and its two enantiomers were also evaluated for hemodynamic and electrocardiographic parameters in pentobarbital-anesthetized cats. […] Compounds were administered at increasing doses from 0.01 to 3 mg/kg as a five-minute intravenous infusion every 20 minutes. […]

Another data set concerns the target 5-HT2A (Homo sapiens, UniProt P28223). Description: binding studies, 5-HT2A.
Text: as §1

The test system of a further data set is hippocampal slices. Description: recovery of synaptic transmission after hypoxia in hippocampal slices. The data set is classed as cell-based. Conditions: for efficacy for recovery of excitatory post synaptic potentials following hypoxia: at a comparable dose. Here is the method: Dose-response relations comparing the efficacy of Racemic (R/S)-eliprodil (open circles), R-eliprodil (closed circles) and memantine (closed diamonds) for their ability to improve recovery of synaptic transmission following a 15 minute period of hypoxia in hippocampal slices in vitro (Figure 2).
Preparation of the hypoxic hippocampal slice preparation has been reported by Reyes et al., "Eliprodil, a non-competitive, NR2B-selective NMDA antagonist, protects pyramidal neurons in hippocampal slices from hypoxic/ischemic damage", Brain Research, Vol. 782, pp. 212-218, 1998. Briefly, hippocampal slices were prepared acutely the same day as the experiment, and each compound was bath applied 30 minutes prior to delivery of the 15 minute hypoxic insult. Recovery of evoked epsps is expressed as percent of the initial, pre-hypoxia epsp maximum slope, with this percent recovery assessed 60 minutes after reoxygenation. Each point is the mean ± S.E.M. of 8 slices at each dose, and EC50's were calculated from a single-active site Lineweaver-Burke linear fit.

Data set [2] relates to rat retinal ganglion cells. Description: glutamate-induced rat retinal ganglion cell death. In kind it is cell-based. Particulars: 10nM for 30 minutes, then 100µM glutamate, viable cells counted after 3 days; Figure 1. An excerpt:
Retinal ganglion cells were selected as they represent the retinal cell that degenerates in glaucoma. MK-801 was selected as a reference NMDA antagonist.
Isolation of rat retinal ganglion cells and assessment of viability in the absence and presence of glutamate was described in Pang, et al., "Protection by Eliprodil Against Excitotoxicity in Cultured Rat Retinal Ganglion Cells", Investigative Ophthalmology & Visual Science, Vol. 40(6), pp. 1170-1176, May, 1999. Briefly, isolated cultured rat retinal ganglion cells were treated with racemic (R/S) eliprodil (10nM), R-eliprodil (10nM), or S-eliprodil (10nM) for thirty (30) minutes followed by the addition of 100µM glutamate. Survival was determined by counting viable cells after an incubation period of three (3) days. Survival with vehicle alone defines 100%. […] S-eliprodil was ineffective.

The next data set addresses 5-HT7 (Homo sapiens, UniProt P34969). Description: binding studies, 5-HT7.
Text: as §1

Data set [3] concerns piglet Purkinje fibers from the heart. In words: action potential duration in piglet Purkinje fibers. Conditions: for maximum effect on APD90: comparison between compounds; for concentration with statistically significant prolongation of APD90: action potential duration at 90% repolarization. Here is the method: as §2
The next data set concerns sigma receptors. Conditions: rat brain; U.S. Patent No. 5,023,266; cited from earlier work.
Another data set deals with T1, 5-HT1A (Homo sapiens, UniProt P08908).
T1 sequence (P08908 1-422): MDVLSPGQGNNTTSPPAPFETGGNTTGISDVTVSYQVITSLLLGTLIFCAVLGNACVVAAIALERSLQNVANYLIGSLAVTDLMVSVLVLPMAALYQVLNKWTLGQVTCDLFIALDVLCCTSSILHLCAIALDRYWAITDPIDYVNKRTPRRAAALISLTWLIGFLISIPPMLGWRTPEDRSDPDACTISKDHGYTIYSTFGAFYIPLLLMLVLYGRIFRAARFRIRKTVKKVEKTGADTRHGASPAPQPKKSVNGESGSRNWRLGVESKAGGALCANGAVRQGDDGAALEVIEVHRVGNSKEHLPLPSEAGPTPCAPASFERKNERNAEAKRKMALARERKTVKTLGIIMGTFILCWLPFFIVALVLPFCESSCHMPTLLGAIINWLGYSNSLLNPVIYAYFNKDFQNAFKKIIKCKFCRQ
In words: binding studies, 5-HT1A.
Text: as §1

The subject of data set [4] is lateral vestibular nucleus. Description: NMDA-induced firing rate of the lateral vestibular nucleus in vivo.
A further data set concerns the target histamine H1 (Homo sapiens, UniProt P35367). Description: binding studies, histamine H1.
Text: as §1

The next data set relates to humans. Conditions: following some doses in humans; cited from earlier work.
The next data set addresses histamine H2 (Homo sapiens, UniProt P25021). In words: binding studies, histamine H2.
Text: as §1

For data set [5] the following is noted: U.S. Patent No. 5,547,963; cited from earlier work.
In a further data set the target is NMDA receptor (Homo sapiens, UniProt Q05586+Q13224). In words: electrophysiology and ligand displacement studies at the NMDA receptor. The data set is classed as binding.
Chain of NMDA receptor (Q13224 27-1484, other chains not shown): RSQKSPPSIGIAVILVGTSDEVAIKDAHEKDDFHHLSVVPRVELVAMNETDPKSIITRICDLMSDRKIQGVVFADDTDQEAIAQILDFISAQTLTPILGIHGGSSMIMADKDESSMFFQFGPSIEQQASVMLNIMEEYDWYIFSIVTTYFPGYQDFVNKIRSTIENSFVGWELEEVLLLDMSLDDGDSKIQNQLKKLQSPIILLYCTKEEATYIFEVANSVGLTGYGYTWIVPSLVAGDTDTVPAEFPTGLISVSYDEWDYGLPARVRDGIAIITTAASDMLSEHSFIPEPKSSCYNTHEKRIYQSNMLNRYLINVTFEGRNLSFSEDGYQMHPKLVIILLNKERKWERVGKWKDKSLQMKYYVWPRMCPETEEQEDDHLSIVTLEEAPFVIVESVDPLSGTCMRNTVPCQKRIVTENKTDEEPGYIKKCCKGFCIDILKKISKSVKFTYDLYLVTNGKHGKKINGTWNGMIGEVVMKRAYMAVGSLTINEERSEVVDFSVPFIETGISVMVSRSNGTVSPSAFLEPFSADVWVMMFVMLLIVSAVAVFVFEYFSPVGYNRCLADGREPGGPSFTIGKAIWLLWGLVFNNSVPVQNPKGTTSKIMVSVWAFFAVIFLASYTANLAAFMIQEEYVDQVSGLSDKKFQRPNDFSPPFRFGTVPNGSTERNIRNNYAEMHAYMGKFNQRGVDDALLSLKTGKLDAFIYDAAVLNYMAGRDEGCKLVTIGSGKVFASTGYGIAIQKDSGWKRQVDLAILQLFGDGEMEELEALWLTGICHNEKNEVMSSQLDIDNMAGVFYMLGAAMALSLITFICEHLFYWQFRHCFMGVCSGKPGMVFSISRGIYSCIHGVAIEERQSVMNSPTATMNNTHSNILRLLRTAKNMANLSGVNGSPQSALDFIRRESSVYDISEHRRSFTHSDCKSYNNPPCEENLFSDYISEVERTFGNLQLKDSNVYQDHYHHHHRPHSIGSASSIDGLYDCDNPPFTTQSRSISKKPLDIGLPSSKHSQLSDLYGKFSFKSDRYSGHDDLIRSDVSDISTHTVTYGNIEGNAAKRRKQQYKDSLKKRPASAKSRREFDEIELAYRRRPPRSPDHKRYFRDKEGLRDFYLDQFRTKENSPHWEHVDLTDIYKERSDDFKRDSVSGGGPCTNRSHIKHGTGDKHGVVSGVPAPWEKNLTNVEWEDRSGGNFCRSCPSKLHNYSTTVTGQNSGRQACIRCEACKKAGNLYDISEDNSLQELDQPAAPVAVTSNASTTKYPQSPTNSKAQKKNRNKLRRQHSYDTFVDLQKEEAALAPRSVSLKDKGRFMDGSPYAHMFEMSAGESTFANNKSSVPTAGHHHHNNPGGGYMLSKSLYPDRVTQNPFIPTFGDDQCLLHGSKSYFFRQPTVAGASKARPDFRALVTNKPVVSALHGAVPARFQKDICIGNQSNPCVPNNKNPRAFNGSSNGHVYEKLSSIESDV
The nature of data set [6]: plasma level in the anesthetized cat protocol. Conditions: 0.1 mg/kg dose, intravenous infusion. In kind it is in vivo.

“Also recorded” adds a separate entry of the source.

Chain of 5-HT2A (P28223 whole entry): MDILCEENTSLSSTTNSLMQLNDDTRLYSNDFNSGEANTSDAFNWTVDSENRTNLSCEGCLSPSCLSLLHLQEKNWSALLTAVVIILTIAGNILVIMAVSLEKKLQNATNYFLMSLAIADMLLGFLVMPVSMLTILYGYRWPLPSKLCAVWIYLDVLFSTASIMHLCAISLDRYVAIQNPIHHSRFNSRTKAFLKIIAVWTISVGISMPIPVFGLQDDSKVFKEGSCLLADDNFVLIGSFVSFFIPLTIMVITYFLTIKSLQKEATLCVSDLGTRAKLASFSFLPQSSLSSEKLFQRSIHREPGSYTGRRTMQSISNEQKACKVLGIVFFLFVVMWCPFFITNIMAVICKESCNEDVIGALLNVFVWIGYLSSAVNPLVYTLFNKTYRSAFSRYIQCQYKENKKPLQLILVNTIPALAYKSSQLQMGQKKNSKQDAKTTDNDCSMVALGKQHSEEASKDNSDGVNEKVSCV
Chain of histamine H2 (P25021 whole entry): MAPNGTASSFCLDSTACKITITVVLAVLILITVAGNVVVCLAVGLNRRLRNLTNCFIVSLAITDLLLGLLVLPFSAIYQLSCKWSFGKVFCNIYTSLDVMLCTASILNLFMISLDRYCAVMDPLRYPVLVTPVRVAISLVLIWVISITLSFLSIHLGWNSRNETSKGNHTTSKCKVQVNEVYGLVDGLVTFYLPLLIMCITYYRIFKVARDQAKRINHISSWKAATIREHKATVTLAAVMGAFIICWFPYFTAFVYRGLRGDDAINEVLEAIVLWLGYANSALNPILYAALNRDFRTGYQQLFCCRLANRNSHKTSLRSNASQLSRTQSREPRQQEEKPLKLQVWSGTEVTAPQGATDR
Chain of 5-HT7 (P34969 whole entry, species assumed): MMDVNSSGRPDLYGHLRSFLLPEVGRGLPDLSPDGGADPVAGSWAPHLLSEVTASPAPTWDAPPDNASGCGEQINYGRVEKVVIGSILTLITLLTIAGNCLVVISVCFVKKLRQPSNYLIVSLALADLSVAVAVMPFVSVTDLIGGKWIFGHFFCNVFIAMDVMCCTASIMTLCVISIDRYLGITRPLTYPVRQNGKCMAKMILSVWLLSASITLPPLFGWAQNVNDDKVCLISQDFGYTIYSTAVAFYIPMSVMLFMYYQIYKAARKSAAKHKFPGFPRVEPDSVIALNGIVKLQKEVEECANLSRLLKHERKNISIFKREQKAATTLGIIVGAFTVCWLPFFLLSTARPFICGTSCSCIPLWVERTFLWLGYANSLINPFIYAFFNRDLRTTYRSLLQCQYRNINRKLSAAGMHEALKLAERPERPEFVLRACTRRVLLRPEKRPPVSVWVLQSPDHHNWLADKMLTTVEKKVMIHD
Chain of 5-HT uptake (P31645 whole entry): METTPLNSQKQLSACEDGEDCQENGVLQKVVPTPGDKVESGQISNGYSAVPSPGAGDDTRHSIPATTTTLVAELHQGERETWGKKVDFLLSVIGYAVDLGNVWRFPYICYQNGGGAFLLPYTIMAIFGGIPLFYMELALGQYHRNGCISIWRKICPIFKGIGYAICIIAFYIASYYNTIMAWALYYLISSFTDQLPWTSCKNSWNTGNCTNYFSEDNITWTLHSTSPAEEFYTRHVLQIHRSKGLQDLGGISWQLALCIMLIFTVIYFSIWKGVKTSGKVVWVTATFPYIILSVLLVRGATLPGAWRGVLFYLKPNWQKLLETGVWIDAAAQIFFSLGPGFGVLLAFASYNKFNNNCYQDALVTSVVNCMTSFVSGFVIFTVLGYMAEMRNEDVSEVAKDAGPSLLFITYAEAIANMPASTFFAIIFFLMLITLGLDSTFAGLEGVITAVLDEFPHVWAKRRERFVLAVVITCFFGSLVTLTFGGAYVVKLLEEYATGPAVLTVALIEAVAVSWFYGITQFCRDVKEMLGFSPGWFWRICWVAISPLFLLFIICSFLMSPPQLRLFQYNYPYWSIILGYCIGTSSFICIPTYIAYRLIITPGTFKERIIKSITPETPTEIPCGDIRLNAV
Chain of histamine H1 (P35367 whole entry): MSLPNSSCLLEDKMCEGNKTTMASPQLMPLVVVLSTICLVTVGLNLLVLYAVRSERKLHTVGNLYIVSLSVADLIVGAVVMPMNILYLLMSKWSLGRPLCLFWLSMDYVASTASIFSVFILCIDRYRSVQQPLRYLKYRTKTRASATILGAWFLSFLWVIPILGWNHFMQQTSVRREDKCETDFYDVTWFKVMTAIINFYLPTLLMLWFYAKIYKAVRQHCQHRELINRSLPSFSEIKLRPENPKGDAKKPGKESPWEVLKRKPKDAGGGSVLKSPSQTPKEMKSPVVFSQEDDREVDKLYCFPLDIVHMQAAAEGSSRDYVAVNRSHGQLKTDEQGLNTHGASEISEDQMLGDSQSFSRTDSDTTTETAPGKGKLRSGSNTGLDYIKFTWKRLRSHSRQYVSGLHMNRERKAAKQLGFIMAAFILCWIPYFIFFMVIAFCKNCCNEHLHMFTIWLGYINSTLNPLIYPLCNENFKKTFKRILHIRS

Turning to `OC(CN1CCC(Cc2ccc(F)cc2)CC1)c1ccc(Cl)cc1` (racemic) [Eliprodil], the affinity result on 5-HT uptake, at β3-adrenergic, in the data set on α1-adrenergic, on 5-HT2A, on 5-HT7 and at 5-HT1A was “sub-micromolar” in each case. Moreover, the affinity result on histamine H1 and on histamine H2 was “sub-micromolar” throughout. Also, in [1], the “Threshold Dose, Heart Rate Decrease” value is recorded as 0.1 mg/kg. Also, in [1], the “Threshold Dose, Mean Blood Pressure Decrease” value is reported as 1.0 mg/kg. For the same molecule, the “Threshold Dose, QTc Prolongation” value in data set [1] was 0.03 mg/kg. In addition, in the data set with hippocampal slices, the “efficacy for recovery of excitatory post synaptic potentials following hypoxia” value (from here on “efficacy for recovery”) is recorded as “less effective”. Moreover, in data set [2], the “neuroprotective effect (survival of retinal ganglion cells)” value (“neuroprotective effect” below) was “marked neuroprotective activity”. Further, in [3], the “maximum effect on APD90” value was “equal to that of S(+) eliprodil”. Also, the “binding to sigma receptors” value in the data set on sigma receptors was “potently bind”. Also, in data set [4], the “inhibition of NMDA-induced firing rate” value is listed as “strongly inhibit”. Also, in the data set with humans, the QTc prolongation result is given as “asymptomatic QTc prolongation”. In data set [5], the neurotrophic effects entry was “Equipotency”.

For the molecule `O[C@@H](CN1CCC(Cc2ccc(F)cc2)CC1)c1ccc(Cl)cc1` [R-eliprodil, R-α-(4-chlorophenyl)-4-(4-fluorophenylmethyl)-1-peperidineethanol], in data set [1], the “Threshold Dose, Heart Rate Decrease” value was 0.3 mg/kg; the “Threshold Dose, Mean Blood Pressure Decrease” value stood at 1.0 mg/kg; the “Threshold Dose, QTc Prolongation” value is 0.1 mg/kg. In addition, the “efficacy for recovery” value with hippocampal slices is recorded as “substantial recovery; also recorded: more efficacious than either racemic or S-eliprodil”. For the same molecule, the “potency for recovery of evoked epsps (EC50 comparison)” value in the data set on hippocampal slices (bath applied 30 minutes before 15 minute hypoxia, recovery 60 minutes after reoxygenation, p<0.05, Figure 2) is “statistically significantly more potent”. Moreover, in data set [2], the “neuroprotective effect” value is listed as “marked neuroprotective activity; also recorded: as efficacious as a protectant as racemic eliprodil”. In data set [3], the “concentration with statistically significant prolongation of APD90” value is reported as not below 100 nM and the “maximum effect on APD90” value is reported as “less than that seen with S(+) eliprodil”. In addition, the “inhibition of NMDA-induced firing rate” value in [4] is “strongly inhibit”. For the same molecule, affinity at NMDA receptor was put at a Ki of 0.2 µM. For the same molecule, the neurotrophic effects result in data set [5] is on record as “Equipotency”. The molecule further returned a plasma level in data set [6] of 34.9 ± 2.8 ng/mL.

Consider `O[C@H](CN1CCC(Cc2ccc(F)cc2)CC1)c1ccc(Cl)cc1` [S-eliprodil], for which, in data set [1], the “Threshold Dose, Heart Rate Decrease” value was 0.1 mg/kg; the “Threshold Dose, Mean Blood Pressure Decrease” value is reported as 1.0 mg/kg; the “Threshold Dose, QTc Prolongation” value amounted to 0.01 mg/kg. For the same molecule, the “efficacy for recovery” value in the data set with hippocampal slices is recorded as “less effective”. Also, the “neuroprotective effect” value in [2] is “ineffective”. In data set [3], the “concentration with statistically significant prolongation of APD90” value is given as not below 30 nM. In addition, the “inhibition of NMDA-induced firing rate” value in data set [4] is “almost inactive at the highest dose tested”. In addition, the Ki (in general, the dissociation constant of the complex between target and ligand, obtained from inhibition or displacement) on NMDA receptor came out at 10 µM. In addition, the neurotrophic effects result in data set [5] is given as “Equipotency”.
